One assay relates to MMP-14. The experiment in a line: MMP-14 activity of trypsin-treated cell suspension and cell sheet at different seeding densities (Example 1). The class given is cell-based. The note with it: for MMP14 average: UE7T-13 cells. From the text:
(§1) In the present disclosure, the MMP activity can be determined by measuring the enzyme activity using a fluorescence resonance energy transfer (FRET) peptide that generates fluorescence upon cleavage by MMP.
(§2) Bone marrow-derived mesenchymal stem cells (UE7T-13 cell line) were suspended in DMED/10% FBS and seeded to make respective seeded cell densities of 3.6×10^4 cells/cm^2, 5.4×10^4 cells/cm^2, and 7.2×10^4 cells/cm^2 in temperature-responsive culture dishes and ordinary cell culture dishes. After four days, the temperature-responsive culture dishes were moved into a 32° C., 5% CO2 incubator, and sheets were made. The cell sheets obtained were washed three times with PBS, then homogenized in the buffer of an MMP activity measurement kit (SensoLyte® 520 MMP-1 Assay Kit Fluorimetric, (ANASPEC Co.: Cat #: AS-71150) and SensoLyte® 520 MMP-14 Assay Kit Fluorimetric (ANASPEC Co.: Cat #AS72025)). The cells seeded in the ordinary cell culture dishes were dispersed in 0.025% trypsin/0.1 mM EDTA, recovered by centrifugation, then washed three times with PBS and homogenized in the buffer for the MMP activity measurement. The results in FIG. 1 show the results on MMP-1 (FIG. 1A) and MMP-14 (FIG. 1B) per cell. […] It was a surprising result that the MMP-1 activity per cell was increased by increasing the seeding density.

In the next assay the test system is MMP-1. The experiment in a line: MMP-1 activity of trypsin-treated cell suspension and cell sheet at different seeding densities (Example 1). The class given is cell-based. Particulars: for MMP1 average: UE7T-13 cells. As to the method: as §1
as §2, with “After” for “Bone marrow-derived mesenchymal stem cells (UE7T-13 cell line) were suspended in DMED/10% FBS and seeded to make respective seeded cell densities of 3.6×10^4 cells/cm^2, 5.4×10^4 cells/cm^2, and 7.2×10^4 cells/cm^2 in temperature-responsive culture dishes and ordinary cell culture dishes. After”

Setting [1] is: seeding density 1.8 × 10^4 cells/cm^2, per cell.
Setting [2] is: seeding density 3.6 × 10^4 cells/cm^2, per cell.
Setting [3] is: seeding density 5.4 × 10^4 cells/cm^2, per cell.
Where [4] appears, read: seeding density 7.2 × 10^4 cells/cm^2, per cell.

Experimental findings from US20230117252A1, “CELL SHEET HAVING FIBROSIS INHIBITORY ACTION” (NATIONAL UNIVERSITY CORPORATION TOTTORI UNIVERSITY, priority 2017, published 2023) are described below.

Turning to Trypsin, the “increase of MMP-14 activity when the seeding density was increased four-fold” value in the assay with MMP-14 (FIG. 1B) is recorded as “about four-fold”. In addition, the MMP14 average with MMP-14 (setting [1]) was determined as 156184.1; in the assay on MMP-14 (setting [2]), 353634.5; in the assay on MMP-14 (setting [3]), 427591.6; in the assay with MMP-14 (setting [4]) it was 576164. In addition, in the assay with MMP-1 (Example 1, MMP-1 and MMP-14 together), the “increase of MMP activity when the seeding density was increased four-fold” value is given as “about four-fold”. Besides, the “increase of MMP-1 activity when the seeding density was increased four-fold” value in the assay on MMP-1 (FIG. 1A) is recorded as “about four-fold”. The MMP1 average in the assay on MMP-1 (setting [1]) worked out at 103548.8; with MMP-1 (setting [2]), 242642.7; in the assay with MMP-1 (setting [3]), 326635.6; in the assay on MMP-1 (setting [4]) it was 462976.
